Measurements from BindingDB's records for patent US10538528 (Taiho Pahrmaceutical Co., Ltd., 2020).

Molecular target: RAC-alpha serine/threonine-protein kinase (Homo sapiens, UniProt P31749)
Test: Kinase Activity Assay
Description: Akt1 was prepared and assays of inhibitory activity of the compound according to the present invention against Akt1 kinase activity in vitro were conducted according to the method described in Biochem. J., vol. 385, pp. 399-408, 2005 and Cancer Res., vol. 68, pp. 2366-2374, 2008. In the preparation of Akt1 protein, human Akt1 tagged with the middle T antigen was expressed in an insect cell Sf9, Akt1 was prepared through affinity purification and activation by PDK1, and the resultant was stored at −80° C. until the inhibition assays of the compounds. In the inhibition assay of the compounds, Akt1 and the compound according to the present invention were subjected to pre-incubation at 25° C. for 120 minutes in a reaction buffer (15 mM Tris-HCl, pH 7.5, 0.01% Tween-20, 2 mM DTT). Subsequently, biotinylated Crosstide (biotin-[…], Millipore), MgCl2, and ATP were added as substrates at the final concentration of 500 nM, 10 mM, and 150 μM, respectively, and the reaction was allowed to proceed at 25° C. for 60 minutes. […] In the end, the fluorescence levels irradiated with an excitation light of 337 nm were assayed at two different wavelength levels (i.e., 620 nm and 665 nm) using PI-HERAstar FS (BMG LABTECH) or PHERAstar (BMG LABTECH).

Chain of RAC-alpha serine/threonine-protein kinase (P31749 whole entry): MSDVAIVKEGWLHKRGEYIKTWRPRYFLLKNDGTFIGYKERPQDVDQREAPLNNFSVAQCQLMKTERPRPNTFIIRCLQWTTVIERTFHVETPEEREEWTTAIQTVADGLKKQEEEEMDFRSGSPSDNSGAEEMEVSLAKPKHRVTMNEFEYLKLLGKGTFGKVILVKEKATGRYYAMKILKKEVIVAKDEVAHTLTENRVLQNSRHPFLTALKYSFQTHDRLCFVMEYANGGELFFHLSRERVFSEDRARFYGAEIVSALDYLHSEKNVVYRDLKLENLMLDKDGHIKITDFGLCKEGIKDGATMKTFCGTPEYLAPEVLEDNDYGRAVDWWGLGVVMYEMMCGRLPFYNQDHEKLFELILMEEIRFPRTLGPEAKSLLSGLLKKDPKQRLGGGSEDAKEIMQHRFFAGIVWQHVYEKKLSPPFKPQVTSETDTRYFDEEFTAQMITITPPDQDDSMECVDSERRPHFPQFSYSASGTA

IC50: 52.2 nM
SMILES: CN(C)CCn1cc(-c2ccc(F)c(C(F)(F)F)c2)nc1C1CCN(c2ncnc3c2C(C)(C)C(=O)N3)CC1 [US10538528, Compound A]
